Patent US20240124465A1, “MOLECULES AND METHODS RELATED TO TREATMENT OF DISORDERS ASSOCIATED WITH JAK-2 SIGNALING DYSFUNCTION” (ST. JUDE CHILDREN'S RESEARCH HOSPITAL, priority 2020, published 2024)

How the values were obtained:
Type in all cases: cell-based
MHH-CALL-4 cells = assay: Cytotoxicity assay (resazurin, 72 hours); set-up: AUC: unit not given beside the values; details: for EC50: MHHCALL4, resazurin; for AUC: area under the dose-response curve
Procedure, shortened: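 Cells grown in RPMI1640 with 10% FBS, 2×10⁵ per well, were exposed to pin-transferred compounds in triplicate for 72 h at 37 °C, 5% CO2. Viability was read after 4 h resazurin incubation. Dose-response AUC was calculated per compound; selected data were fitted by non-linear regression.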

JAK1 = molecular target: T1, JAK1 (Homo sapiens, UniProt P23458); assay: Western blot assay, JAK1 protein degradation; details: MHH-CALL-4 cells, vehicle control = 100%
T1 construct: endogenous in cells; host or cells: MHH-CALL-4
Procedure: (§1) Western blot assay: MHH-CALL-4 Cells were washed twice with ice-cold PBS and lysed in RIPA lysis buffer (Sigma) freshly supplemented with Halt™ Protease Inhibitor Cocktail (ThermoFisher) for 15 minutes on ice. The cell pellet was removed by centrifugation at 13,000 g at 4° C. for 15 minutes. Protein concentration was measured by BCA assay (Thermo Fisher Scientific). Proteins were denatured in NuPAGE LDS 4× sample buffer supplemented with reducing agents (Invitrogen). Typically, 10-20 μg of total protein was loaded per lane on a 4%-12% NUPAGE Bis-Tris gradient gel (Invitrogen) and analyzed by standard immunoblotting and imaged using Li—COR Odyssey CLx (LI-COR Biotechnology, Lincoln, NE). To access the protein degradation, the signal of target protein was normalized by the signal of ACBT and the signal of vehicle control was set as 100%. Primary antibodies used were: JAK1 (Cell Signaling #3332S), JAK2 (#3230S), JAK3 (#8827S), TYK2 (#9312S), GSPT1 (#14980S), CRBN (#71810S), IKZF1 (Santa Cruz Biotechnology, SC-398265) and ACBT (Santa Cruz Biotechnology, SC-47778).

JAK2 = assay: Western blot assay, JAK2 protein degradation; details: MHH-CALL-4 cells, vehicle control = 100%
Procedure, shortened: (§2)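 Degradation is reported as remaining target protein, normalized to ACBT loading control with vehicle-treated cells as 100%. Lysates from MHH-CALL-4 cells were separated on gradient gels and probed by immunoblotting.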

JAK3 = molecular target: T2, JAK3 (Homo sapiens, UniProt P52333); assay: Western blot assay, JAK3 protein degradation; details: MHHCALL4; 100 nM, 24 h; MHH-CALL-4 cells; vehicle control = 100%; read-out: Target Protein Degradation (% remaining at 100 nM, 24 h) JAK3
T2 construct: endogenous in cells; host or cells: MHH-CALL-4
T2 sequence (P52333 1-1124): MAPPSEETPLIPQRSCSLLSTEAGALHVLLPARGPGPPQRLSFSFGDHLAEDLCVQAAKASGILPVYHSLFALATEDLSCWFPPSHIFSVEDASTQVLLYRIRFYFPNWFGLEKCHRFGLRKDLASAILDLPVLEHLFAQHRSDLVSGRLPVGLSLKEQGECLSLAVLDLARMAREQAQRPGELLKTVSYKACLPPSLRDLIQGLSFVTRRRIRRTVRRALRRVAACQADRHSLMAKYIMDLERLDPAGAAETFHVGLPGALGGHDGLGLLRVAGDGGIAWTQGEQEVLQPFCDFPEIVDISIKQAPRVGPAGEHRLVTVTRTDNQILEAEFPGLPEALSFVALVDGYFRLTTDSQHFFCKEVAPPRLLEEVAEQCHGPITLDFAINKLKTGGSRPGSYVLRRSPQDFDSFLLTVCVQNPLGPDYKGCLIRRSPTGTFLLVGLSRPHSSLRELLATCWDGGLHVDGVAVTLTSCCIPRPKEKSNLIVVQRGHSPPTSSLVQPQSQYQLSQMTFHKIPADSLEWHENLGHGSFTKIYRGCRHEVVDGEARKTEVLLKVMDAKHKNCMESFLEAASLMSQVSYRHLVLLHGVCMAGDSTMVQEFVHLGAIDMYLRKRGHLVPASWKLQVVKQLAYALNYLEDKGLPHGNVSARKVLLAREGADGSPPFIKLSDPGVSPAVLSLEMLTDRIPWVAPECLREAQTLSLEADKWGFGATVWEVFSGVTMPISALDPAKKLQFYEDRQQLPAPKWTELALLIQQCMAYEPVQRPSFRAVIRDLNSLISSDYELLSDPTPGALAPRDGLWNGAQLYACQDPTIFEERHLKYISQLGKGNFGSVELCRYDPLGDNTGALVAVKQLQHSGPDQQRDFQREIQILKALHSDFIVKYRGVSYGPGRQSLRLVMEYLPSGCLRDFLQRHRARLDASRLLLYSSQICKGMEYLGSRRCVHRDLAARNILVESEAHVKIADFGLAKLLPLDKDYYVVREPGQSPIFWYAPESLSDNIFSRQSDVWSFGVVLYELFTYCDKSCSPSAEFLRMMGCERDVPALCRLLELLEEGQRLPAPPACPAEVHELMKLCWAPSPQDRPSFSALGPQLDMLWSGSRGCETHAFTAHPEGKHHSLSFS
Procedure, shortened: as §2

TYK2 = molecular target: T3, TYK2 (Homo sapiens, UniProt P29597); assay: Western blot assay, TYK2 protein degradation; details: MHH-CALL-4 cells, vehicle control = 100%
T3 construct: endogenous in cells; host or cells: MHH-CALL-4
Procedure: as §1

GSPT1 = molecular target: T4, GSPT1 (Homo sapiens, UniProt P15170); assay: Western blot assay, GSPT1 neosubstrate degradation; details: MHHCALL4; 100 nM, 24 h; MHH-CALL-4 cells; vehicle control = 100%
T4 construct: endogenous in cells; host or cells: MHH-CALL-4
Procedure, shortened: as §2

IKZF1 = molecular target: T5, IKZF1 (Homo sapiens, UniProt Q13422); assay: Western blot assay, IKZF1 neosubstrate degradation; details: MHH-CALL-4 cells, vehicle control = 100%
T5 construct: endogenous in cells; host or cells: MHH-CALL-4
Procedure: as §1

T3 sequence (P29597 whole entry): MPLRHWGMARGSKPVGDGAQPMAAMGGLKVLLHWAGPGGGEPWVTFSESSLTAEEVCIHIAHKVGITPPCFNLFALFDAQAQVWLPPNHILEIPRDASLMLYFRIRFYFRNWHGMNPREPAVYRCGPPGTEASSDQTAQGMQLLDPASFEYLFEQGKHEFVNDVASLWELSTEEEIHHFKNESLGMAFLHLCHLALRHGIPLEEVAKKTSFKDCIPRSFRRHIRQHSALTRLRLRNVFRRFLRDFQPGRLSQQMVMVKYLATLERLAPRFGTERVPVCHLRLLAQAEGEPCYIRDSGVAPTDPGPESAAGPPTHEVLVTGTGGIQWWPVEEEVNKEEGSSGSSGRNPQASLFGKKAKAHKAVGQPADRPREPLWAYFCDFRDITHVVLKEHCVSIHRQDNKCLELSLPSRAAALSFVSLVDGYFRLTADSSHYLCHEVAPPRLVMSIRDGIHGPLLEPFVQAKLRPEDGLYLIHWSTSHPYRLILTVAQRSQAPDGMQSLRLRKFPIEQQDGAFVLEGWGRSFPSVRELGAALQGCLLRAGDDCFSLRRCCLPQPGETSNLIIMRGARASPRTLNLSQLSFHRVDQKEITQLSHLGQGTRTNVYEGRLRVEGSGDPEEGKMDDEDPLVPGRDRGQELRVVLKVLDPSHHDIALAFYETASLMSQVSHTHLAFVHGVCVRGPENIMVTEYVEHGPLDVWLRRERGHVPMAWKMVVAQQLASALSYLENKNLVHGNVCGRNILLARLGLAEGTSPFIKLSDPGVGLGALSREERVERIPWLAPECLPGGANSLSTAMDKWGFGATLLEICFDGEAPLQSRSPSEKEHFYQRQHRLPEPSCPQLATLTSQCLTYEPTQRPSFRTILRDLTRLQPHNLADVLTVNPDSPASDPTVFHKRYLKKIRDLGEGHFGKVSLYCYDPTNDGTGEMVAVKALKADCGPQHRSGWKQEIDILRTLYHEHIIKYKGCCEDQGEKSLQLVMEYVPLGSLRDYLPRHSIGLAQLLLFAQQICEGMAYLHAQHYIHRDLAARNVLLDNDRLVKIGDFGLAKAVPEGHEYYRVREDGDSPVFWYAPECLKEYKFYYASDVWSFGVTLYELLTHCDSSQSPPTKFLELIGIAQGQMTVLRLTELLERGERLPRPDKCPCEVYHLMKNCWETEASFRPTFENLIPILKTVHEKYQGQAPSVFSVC
T1 sequence (P23458 whole entry): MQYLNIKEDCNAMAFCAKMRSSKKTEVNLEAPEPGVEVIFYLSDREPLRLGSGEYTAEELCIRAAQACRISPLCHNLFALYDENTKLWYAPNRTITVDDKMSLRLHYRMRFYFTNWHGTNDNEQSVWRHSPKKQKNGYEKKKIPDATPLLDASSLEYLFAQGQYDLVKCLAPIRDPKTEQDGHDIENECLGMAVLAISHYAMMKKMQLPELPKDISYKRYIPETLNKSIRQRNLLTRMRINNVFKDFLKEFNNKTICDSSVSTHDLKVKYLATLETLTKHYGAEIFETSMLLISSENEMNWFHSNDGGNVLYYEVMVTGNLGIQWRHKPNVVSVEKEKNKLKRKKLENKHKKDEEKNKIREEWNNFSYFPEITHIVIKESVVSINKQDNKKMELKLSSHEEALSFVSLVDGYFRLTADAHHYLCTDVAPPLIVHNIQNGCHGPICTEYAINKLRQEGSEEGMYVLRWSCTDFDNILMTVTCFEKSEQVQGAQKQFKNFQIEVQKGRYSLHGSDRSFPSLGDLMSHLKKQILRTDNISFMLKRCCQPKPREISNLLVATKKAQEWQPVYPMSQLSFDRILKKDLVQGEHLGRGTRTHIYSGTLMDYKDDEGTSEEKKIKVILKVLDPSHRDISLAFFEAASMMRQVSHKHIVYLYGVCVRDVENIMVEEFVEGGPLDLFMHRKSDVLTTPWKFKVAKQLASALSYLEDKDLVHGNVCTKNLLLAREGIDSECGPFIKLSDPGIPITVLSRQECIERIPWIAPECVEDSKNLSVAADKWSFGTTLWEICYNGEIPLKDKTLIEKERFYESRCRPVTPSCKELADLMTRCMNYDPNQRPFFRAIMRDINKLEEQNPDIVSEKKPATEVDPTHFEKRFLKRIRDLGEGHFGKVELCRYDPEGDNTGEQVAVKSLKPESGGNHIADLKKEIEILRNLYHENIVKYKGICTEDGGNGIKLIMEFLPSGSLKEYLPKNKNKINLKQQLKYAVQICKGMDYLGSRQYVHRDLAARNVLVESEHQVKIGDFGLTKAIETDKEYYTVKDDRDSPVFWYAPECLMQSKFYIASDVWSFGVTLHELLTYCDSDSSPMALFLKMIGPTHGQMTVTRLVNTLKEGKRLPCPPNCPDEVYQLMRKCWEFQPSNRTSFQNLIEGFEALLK
T4 sequence (P15170 whole entry): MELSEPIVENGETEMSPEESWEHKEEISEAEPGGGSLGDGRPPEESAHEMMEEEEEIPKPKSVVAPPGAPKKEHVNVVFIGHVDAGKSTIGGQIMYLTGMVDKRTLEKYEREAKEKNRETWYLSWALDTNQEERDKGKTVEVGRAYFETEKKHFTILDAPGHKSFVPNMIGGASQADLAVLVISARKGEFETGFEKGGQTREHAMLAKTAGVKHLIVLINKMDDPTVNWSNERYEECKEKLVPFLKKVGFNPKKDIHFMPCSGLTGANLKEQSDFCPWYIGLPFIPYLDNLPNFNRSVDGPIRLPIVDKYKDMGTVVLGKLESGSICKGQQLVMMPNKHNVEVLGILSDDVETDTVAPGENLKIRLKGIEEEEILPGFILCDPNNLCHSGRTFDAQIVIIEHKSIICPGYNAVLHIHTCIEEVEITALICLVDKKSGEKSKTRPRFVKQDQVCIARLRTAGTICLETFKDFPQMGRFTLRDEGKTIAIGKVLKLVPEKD
T5 sequence (Q13422 whole entry): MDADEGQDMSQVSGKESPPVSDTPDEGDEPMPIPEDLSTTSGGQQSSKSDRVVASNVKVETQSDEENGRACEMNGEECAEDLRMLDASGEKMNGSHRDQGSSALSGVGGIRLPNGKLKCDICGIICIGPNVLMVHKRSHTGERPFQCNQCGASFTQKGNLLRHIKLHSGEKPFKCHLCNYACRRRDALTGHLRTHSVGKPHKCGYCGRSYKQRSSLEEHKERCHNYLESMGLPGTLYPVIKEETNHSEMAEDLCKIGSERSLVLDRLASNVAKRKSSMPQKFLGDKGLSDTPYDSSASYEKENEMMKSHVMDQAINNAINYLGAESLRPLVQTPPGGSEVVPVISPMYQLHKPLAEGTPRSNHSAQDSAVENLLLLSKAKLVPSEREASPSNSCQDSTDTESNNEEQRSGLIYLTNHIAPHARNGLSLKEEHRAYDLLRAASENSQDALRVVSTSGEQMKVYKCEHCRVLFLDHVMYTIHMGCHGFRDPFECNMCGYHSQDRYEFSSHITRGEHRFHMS

Target Protein Degradation (% remaining at 100 nM, 24 h) JAK1 (JAK1) [% remaining]	remaining activity at 0.1 µM (JAK3) [%]	Target Protein Degradation (% remaining at 100 nM, 24 h) TYK2 (TYK2) [% remaining]	remaining activity at 0.1 µM (GSPT1) [%]	Neosubstrate Degradation (% remaining at 100 nM, 24 h) IKZF1 (IKZF1) [% remaining]	Structure (SMILES)	EC50 (MHH-CALL-4 cells) [nM]	AUC (MHH-CALL-4 cells)	Target Protein Degradation (% remaining at 100 nM, 24 h) JAK2 (JAK2) [% remaining]
59	11	–	74	–	CCS(=O)(=O)N1CC(CC#N)(n2cc(-c3nc(Nc4ccc(C(=O)N5CCC(CN6CCN(c7ccc(C8CCC(=O)NC8=O)cc7)CC6)CC5)cc4)nc4[nH]ccc34)cn2)C1 (stereo not drawn) [Compound 49, 2-(3-(4-(2-((4-(4-((4-(4-(2,6-dioxopiperidin-3-yl)phenyl)piperazin-1-yl)methyl)piperidine-1-carbonyl)phenyl)amino)-7H-pyrrolo[2,3-d]pyrimidin-4-yl)-1H-pyrazol-1-yl)-1-(ethylsulfonyl)azetidin-3-yl)acetonitrile]	4	199	13
85	28	–	137	–	CCS(=O)(=O)N1CC(CC#N)(n2cc(-c3nc(Nc4ccc(C(=O)N5CCC6(CC5)CCN(c5ccc(C7CCC(=O)NC7=O)cc5)CC6)cc4)nc4[nH]ccc34)cn2)C1 (stereo not drawn) [Compound 50, 2-(3-(4-(2-((4-(9-(4-(2,6-dioxopiperidin-3-yl)phenyl)-3,9-diazaspiro[5.5]undecane-3-carbonyl)phenyl)amino)-7H-pyrrolo[2,3-d]pyrimidin-4-yl)-1H-pyrazol-1-yl)-1-(ethylsulfonyl)azetidin-3-yl)acetonitrile]	9	202	11
126	27	–	72	–	CCS(=O)(=O)N1CC(CC#N)(n2cc(-c3nc(Nc4ccc(C(=O)N5CCC6(CCN(c7ccc(C8CCC(=O)NC8=O)cc7)CC6)C5)cc4)nc4[nH]ccc34)cn2)C1 (stereo not drawn) [Compound 52, 2-(3-(4-(2-((4-(8-(4-(2,6-dioxopiperidin-3-yl)phenyl)-2,8-diazaspiro[4.5]decane-2-carbonyl)phenyl)amino)-7H-pyrrolo[2,3-d]pyrimidin-4-yl)-1H-pyrazol-1-yl)-1-(ethylsulfonyl)azetidin-3-yl)acetonitrile]	9	180	16

More lines, now with the values behind:

Structure (SMILES)	Target Protein Degradation (% remaining at 100 nM, 24 h) JAK1 (JAK1) [% remaining]	remaining activity at 0.1 µM (JAK3) [%]	Target Protein Degradation (% remaining at 100 nM, 24 h) TYK2 (TYK2) [% remaining]	remaining activity at 0.1 µM (GSPT1) [%]	Neosubstrate Degradation (% remaining at 100 nM, 24 h) IKZF1 (IKZF1) [% remaining]	EC50 (MHH-CALL-4 cells) [nM]	AUC (MHH-CALL-4 cells)	Target Protein Degradation (% remaining at 100 nM, 24 h) JAK2 (JAK2) [% remaining]
CCS(=O)(=O)N1CC(CC#N)(n2cc(-c3nc(Nc4ccc(C(=O)NCCCCOc5ccc(C6CCC(=O)NC6=O)cc5)cc4)nc4[nH]ccc34)cn2)C1 (stereo not drawn) [Compound 5]	124	65	142	71	79	2.2	124	22
CCS(=O)(=O)N1CC(CC#N)(n2cc(-c3nc(Nc4ccc(C(=O)NCCN5CCN(c6ccc(C7CCC(=O)NC7=O)cc6)CC5)cc4)nc4[nH]ccc34)cn2)C1 (stereo not drawn) [Compound 37, 4-((4-(1-(3-(cyanomethyl)-1-(ethylsulfonyl)azetidin-3-yl)-1H-pyrazol-4-yl)-7H-pyrrolo[2,3-d]pyrimidin-2-yl)amino)-N-(2-(4-(4-(2,6-dioxopiperidin-3-yl)phenyl)piperazin-1-yl)ethyl)benzamide]	120	58	121	–	–	2.7	149	26
CCS(=O)(=O)N1CC(CC#N)(n2cc(-c3nc(Nc4ccc(C(=O)NCCCCOc5cccc(C6CCC(=O)NC6=O)c5)cc4)nc4[nH]ccc34)cn2)C1 (stereo not drawn) [Compound 41, 4-((4-(1-(3-(cyanomethyl)-1-(ethylsulfonyl)azetidin-3-yl)-1H-pyrazol-4-yl)-7H-pyrrolo[2,3-d]pyrimidin-2-yl)amino)-N-(4-(3-(2,6-dioxopiperidin-3-yl)phenoxy)butyl)benzamide]	97	46	125	–	–	51.2	202	28
CCS(=O)(=O)N1CC(CC#N)(n2cc(-c3nc(Nc4ccc(C(=O)NC5CCN(c6ccc(C7CCC(=O)NC7=O)cc6)CC5)cc4)nc4[nH]ccc34)cn2)C1 (stereo not drawn) [Compound 46, 4-((4-(1-(3-(cyanomethyl)-1-(ethylsulfonyl)azetidin-3-yl)-1H-pyrazol-4-yl)-7H-pyrrolo[2,3-d]pyrimidin-2-yl)amino)-N-(1-(4-(2,6-dioxopiperidin-3-yl)phenyl)piperidin-4-yl)benzamide]	98	–	119	–	–	9.25	–	20
CCS(=O)(=O)N1CC(CC#N)(n2cc(-c3nc(Nc4ccc(C(=O)NCCCCOc5ccc(C6CCC(=O)N(C)C6=O)cc5)cc4)nc4[nH]ccc34)cn2)C1 (stereo not drawn) [Compound 47, 4-((4-(1-(3-(cyanomethyl)-1-(ethylsulfonyl)azetidin-3-yl)-1H-pyrazol-4-yl)-7H-pyrrolo[2,3-d]pyrimidin-2-yl)amino)-N-(4-(4-(1-methyl-2,6-dioxopiperidin-3-yl)phenoxy)butyl)benzamide]	114	101	89	86	–	3.35	–	128
CCS(=O)(=O)N1CC(CC#N)(n2cc(-c3nc(Nc4ccc(C(=O)NCCCN5CC6CCC(C5)N6c5ccc(C6CCC(=O)NC6=O)cc5)cc4)nc4[nH]ccc34)cn2)C1 (stereo not drawn) [Compound 55, 4-((4-(1-(3-(cyanomethyl)-1-(ethylsulfonyl)azetidin-3-yl)-1H-pyrazol-4-yl)-7H-pyrrolo[2,3-d]pyrimidin-2-yl)amino)-N-(3-(8-(4-(2,6-dioxopiperidin-3-yl)phenyl)-3,8-diazabicyclo[3.2.1]octan-3-yl)propyl)benzamide]	113	44	–	75	–	596	149	19
